One may read the IC50 as the concentration at which inhibition is half-maximal. Lower therefore signals greater potency.

This note sets out measurements from article PMC3702614, “Dietary Compound Isoliquiritigenin Inhibits Breast Cancer Neoangiogenesis via VEGF/VEGFR-2 Signaling Pathway” (PLoS ONE, 2013).

This test has as its target T1, VEGFR-2 (Homo sapiens, UniProt P35968).
T1 construct: gene KDR; biotin-labeled VEGFR-2 (Prospec)
Briefly: in vitro tyrosine kinase ELISA. The class given is biochemical. In general terms: An ELISA detects its analyte on a solid surface through an enzyme-linked reagent.

Each structure is given as a SMILES string.

T1 sequence (P35968 20-1356): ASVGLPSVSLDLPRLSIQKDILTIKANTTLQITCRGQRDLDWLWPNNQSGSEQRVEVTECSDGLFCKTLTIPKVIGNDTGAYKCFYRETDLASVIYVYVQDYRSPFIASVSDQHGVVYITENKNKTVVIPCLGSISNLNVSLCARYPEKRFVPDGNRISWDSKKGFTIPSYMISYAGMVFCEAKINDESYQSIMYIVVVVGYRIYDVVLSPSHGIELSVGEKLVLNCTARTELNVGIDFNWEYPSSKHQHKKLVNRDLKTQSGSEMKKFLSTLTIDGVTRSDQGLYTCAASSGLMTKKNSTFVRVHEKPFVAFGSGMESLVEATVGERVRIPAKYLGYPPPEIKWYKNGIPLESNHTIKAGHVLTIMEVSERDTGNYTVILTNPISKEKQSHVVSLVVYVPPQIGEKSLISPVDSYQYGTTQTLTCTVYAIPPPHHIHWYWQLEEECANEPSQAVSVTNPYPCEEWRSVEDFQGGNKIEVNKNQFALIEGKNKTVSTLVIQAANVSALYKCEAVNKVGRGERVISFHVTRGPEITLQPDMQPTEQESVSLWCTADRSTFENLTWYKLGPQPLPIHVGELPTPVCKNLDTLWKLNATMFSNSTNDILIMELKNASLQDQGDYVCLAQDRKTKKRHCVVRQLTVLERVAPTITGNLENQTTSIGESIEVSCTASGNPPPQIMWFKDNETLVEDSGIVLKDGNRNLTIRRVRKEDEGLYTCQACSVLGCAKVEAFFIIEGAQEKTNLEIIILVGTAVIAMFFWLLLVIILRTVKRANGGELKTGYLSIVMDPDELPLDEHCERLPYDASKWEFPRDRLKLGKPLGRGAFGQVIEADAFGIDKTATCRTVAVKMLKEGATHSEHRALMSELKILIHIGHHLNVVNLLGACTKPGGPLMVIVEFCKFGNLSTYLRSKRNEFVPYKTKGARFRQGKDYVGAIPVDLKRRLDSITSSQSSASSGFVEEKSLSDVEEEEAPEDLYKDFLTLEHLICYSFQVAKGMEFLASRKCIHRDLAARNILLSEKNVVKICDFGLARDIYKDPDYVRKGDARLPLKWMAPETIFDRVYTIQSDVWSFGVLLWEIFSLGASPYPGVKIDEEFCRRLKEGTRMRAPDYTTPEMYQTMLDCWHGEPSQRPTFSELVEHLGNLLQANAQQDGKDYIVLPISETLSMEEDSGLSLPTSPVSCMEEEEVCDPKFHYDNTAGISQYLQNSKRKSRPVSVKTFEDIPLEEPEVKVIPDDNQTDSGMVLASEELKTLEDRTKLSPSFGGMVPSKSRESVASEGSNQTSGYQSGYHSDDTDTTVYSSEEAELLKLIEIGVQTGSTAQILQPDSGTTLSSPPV

For the compound `O=C(/C=C/c1ccc(O)cc1)c1ccc(O)cc1O` [ISL, Isoliquiritigenin], the IC50 is roughly 100 nM.
